Measured values: PMC11589570, “Critical assessment of LC3/GABARAP ligands used for degrader development and ligandability of LC3/GABARAP binding pockets” (Nature Communications, 2024)
Where two headings read alike, the source gives them in different places.

Target: LC3B (Homo sapiens, UniProt Q9GZQ8)
Settings: for CSP: LC3B:ligand molar ratio 1:2; for 3D Mapping code: molar ratio 1:2

`O=C1Nc2ccc(I)cc2C1=Cc1cc(Br)c(O)c(Br)c1` [compound 4] was tested, and the Kd was no less than 200 µM, the CSP induced (I34 HN resonance, molar ratio 10O5:LC3B 1) was 0.019 and the CSP induced (I34 HN resonance, molar ratio 10O5:LC3B 2) was 0.03102. It also gave a CSP induced (I34 HN resonance, molar ratio 10O5:LC3B 8) of 0.06113, a CSP induced (K51 HN resonance, molar ratio 10O5:LC3B 1) of 0.02725 and a CSP induced (K51 HN resonance, molar ratio 10O5:LC3B 2) of 0.0413. The CSP induced (K51 HN resonance, molar ratio 10O5:LC3B 8) was 0.0854, the CSP induced (L82 HN resonance, molar ratio 10O5:LC3B 1) was 0.01304 and the CSP induced (L82 HN resonance, molar ratio 10O5:LC3B 2) was 0.03131. It also gave a CSP induced (L82 HN resonance, molar ratio 10O5:LC3B 8) of 0.0642, a CSP (LC3B residue A75) of 0.00342 ppm and a CSP (LC3B residue A78) of 0.00654 ppm. It also gave a CSP (LC3B residue A114) of 0.006 ppm, a CSP (LC3B residue D19) of 0.011 ppm and a CSP (LC3B residue D48) of 0.026 ppm. The “3D Mapping code” value (LC3B residue D48) was “Light green (intermediate (SD < CSP <2xSD))”, the CSP (LC3B residue D56) was 0.017 ppm and the “3D Mapping code” value (LC3B residue D56) was “Light green (intermediate (SD < CSP <2xSD))”. It also gave a CSP (LC3B residue D104) of 0.00224 ppm, a CSP (LC3B residue D106) of 0.00462 ppm and a CSP (LC3B residue E14) of 0.00184 ppm. For the same molecule, the CSP (LC3B residue E18) was 0.00544 ppm, the CSP (LC3B residue E25) was 0.018 ppm and the “3D Mapping code” value (LC3B residue E25) was “Light green (intermediate (SD < CSP <2xSD))”. The CSP (LC3B residue E36) was 0.023 ppm, the “3D Mapping code” value (LC3B residue E36) was “Light green (intermediate (SD < CSP <2xSD))” and the CSP (LC3B residue E41) was 0.002 ppm. For the same molecule, the CSP (LC3B residue E62) was 0.016 ppm, the “3D Mapping code” value (LC3B residue E62) was “Light green (intermediate (SD < CSP <2xSD))” and the CSP (LC3B residue E97) was 0.013 ppm. The CSP (LC3B residue E100) was 0.015 ppm, the CSP (LC3B residue E102) was 0.00152 ppm and the CSP (LC3B residue E105) was 0.00355 ppm. It also gave a CSP (LC3B residue E117) of 0.010 ppm, a CSP (LC3B residue F07) of 0.011 ppm and a CSP (LC3B residue F13) of 0.00221 ppm. For the same molecule, the CSP (LC3B residue F52) was 0.070 ppm, the “3D Mapping code” value (LC3B residue F52) was “Orange (strong (2xSD <CSP))” and the CSP (LC3B residue F108) was 0.00424 ppm. The CSP (LC3B residue F119) was 0.003 ppm, the CSP (LC3B residue G40, estimated) was 0.006 ppm and the “3D Mapping code” value (LC3B residue G85) was “Light green (intermediate (SD < CSP <2xSD))”. For the same molecule, the CSP (LC3B residue G107) was 0.005 ppm, the CSP (LC3B residue H27) was 0.018 ppm and the “3D Mapping code” value (LC3B residue H27) was “Light green (intermediate (SD < CSP <2xSD))”. The CSP (LC3B residue H57) was 0.022 ppm, the “3D Mapping code” value (LC3B residue H57) was “Light green (intermediate (SD < CSP <2xSD))” and the “3D Mapping code” value (LC3B residue H86) was “Light green (intermediate (SD < CSP <2xSD))”. The CSP (LC3B residue I23) was 0.018 ppm, the “3D Mapping code” value (LC3B residue I23) was “Light green (intermediate (SD < CSP <2xSD))” and the CSP (LC3B residue I31) was 0.020 ppm. The “3D Mapping code” value (LC3B residue I31) was “Light green (intermediate (SD < CSP <2xSD))”, the CSP (LC3B residue I34) was 0.026 ppm and the “3D Mapping code” value (LC3B residue I34) was “Light green (intermediate (SD < CSP <2xSD))”. For the same molecule, the CSP (LC3B residue I35) was 0.011 ppm, the CSP (LC3B residue I64) was 0.035 ppm and the “3D Mapping code” value (LC3B residue I64) was “Orange (strong (2xSD <CSP))”. The CSP (LC3B residue I66) was 0.00535 ppm, the CSP (LC3B residue I67) was 0.022 ppm and the “3D Mapping code” value (LC3B residue I67) was “Light green (intermediate (SD < CSP <2xSD))”. The “3D Mapping code” value (LC3B residue I95) was “Light green (intermediate (SD < CSP <2xSD))”, the CSP (LC3B residue K08) was 0.006 ppm and the CSP (LC3B residue K30) was 0.022 ppm. The “3D Mapping code” value (LC3B residue K30) was “Light green (intermediate (SD < CSP <2xSD))”, the CSP (LC3B residue K39) was 0.008 ppm and the CSP (LC3B residue K42) was 0.00565 ppm. For the same molecule, the CSP (LC3B residue K49) was 0.017 ppm, the “3D Mapping code” value (LC3B residue K49) was “Light green (intermediate (SD < CSP <2xSD))” and the CSP (LC3B residue K51) was 0.037 ppm. For the same molecule, the “3D Mapping code” value (LC3B residue K51) was “Orange (strong (2xSD <CSP))”, the CSP (LC3B residue K65) was 0.004 ppm and the CSP (LC3B residue K103) was 0.011 ppm. The CSP (LC3B residue L22) was 0.009 ppm, the CSP (LC3B residue L44) was 0.00371 ppm and the CSP (LC3B residue L47) was 0.022 ppm. For the same molecule, the “3D Mapping code” value (LC3B residue L47) was “Light green (intermediate (SD < CSP <2xSD))”, the CSP (LC3B residue L53) was 0.052 ppm and the “3D Mapping code” value (LC3B residue L53) was “Orange (strong (2xSD <CSP))”. For the same molecule, the CSP (LC3B residue L63) was 0.011 ppm, the CSP (LC3B residue L71) was 0.011 ppm and the CSP (LC3B residue L73) was 0.011 ppm. The “3D Mapping code” value (LC3B residue L81) was “Light green (intermediate (SD < CSP <2xSD))”, the “3D Mapping code” value (LC3B residue L82) was “Light green (intermediate (SD < CSP <2xSD))” and the CSP (LC3B residue L109) was 0.00462 ppm. It also gave a CSP (LC3B residue M01, estimated) of 0.002 ppm.
